Values of other authors in publication PMC11765717, “In Vitro Insights into Bacteriocin-Mediated Modulation of Chicken Cecal Microbiota” (International Journal of Molecular Sciences, 2025).

Columns and labels:
[1] = system: L. ivanovii; set-up: method as in PMID 35170996; conditions: sensitive strain L. ivanovii; ref [64]; cited from earlier work
[2] = ref [67],[76]; cited from earlier work

Pediocin PA-1 (M31L) (KYYGNGVTCGKHSCSVDWGKATTCIINNGALAWATGGHQGNHKC; UniProt P29430 19-62, looked up, variant M31L)
MIC (µg/mL) [1]: 0.09 µg/mL
Antibacterial activity in conditions mimicking the small intestine, in words [2]: losing its antibacterial activity completely
